The target in the test is T1, Dual specificity protein kinase TTK (Homo sapiens, UniProt P33981).
T1 sequence (P33981 whole entry): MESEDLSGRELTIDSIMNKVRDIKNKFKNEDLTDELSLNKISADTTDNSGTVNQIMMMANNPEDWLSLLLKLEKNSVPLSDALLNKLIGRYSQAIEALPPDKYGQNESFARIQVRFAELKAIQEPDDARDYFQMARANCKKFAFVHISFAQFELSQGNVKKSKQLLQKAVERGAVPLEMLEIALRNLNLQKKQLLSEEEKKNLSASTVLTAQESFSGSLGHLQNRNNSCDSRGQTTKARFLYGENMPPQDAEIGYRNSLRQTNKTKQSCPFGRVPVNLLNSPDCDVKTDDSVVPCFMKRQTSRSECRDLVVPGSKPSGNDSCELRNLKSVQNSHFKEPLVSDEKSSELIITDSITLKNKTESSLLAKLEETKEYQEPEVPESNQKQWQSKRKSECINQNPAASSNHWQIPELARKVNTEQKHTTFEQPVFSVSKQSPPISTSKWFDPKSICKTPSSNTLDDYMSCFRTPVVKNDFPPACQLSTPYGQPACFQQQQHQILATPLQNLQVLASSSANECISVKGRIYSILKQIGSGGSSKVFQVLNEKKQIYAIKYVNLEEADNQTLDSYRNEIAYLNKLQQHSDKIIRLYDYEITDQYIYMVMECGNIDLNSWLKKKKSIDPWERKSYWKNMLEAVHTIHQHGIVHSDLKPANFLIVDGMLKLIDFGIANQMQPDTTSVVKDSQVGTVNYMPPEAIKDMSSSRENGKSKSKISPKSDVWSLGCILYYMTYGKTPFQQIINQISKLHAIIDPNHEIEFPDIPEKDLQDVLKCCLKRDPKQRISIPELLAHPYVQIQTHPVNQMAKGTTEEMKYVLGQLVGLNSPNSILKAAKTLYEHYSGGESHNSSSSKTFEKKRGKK

Usually IC50 stands for the point on the concentration scale where inhibition reaches its midpoint. For the compound `C#Cc1cn2c(-c3ccc(C(=O)NC4C[C@@H]4F)c(C)c3)cnc2c(NCCC(F)(F)F)n1` (stereo in doubt), the IC50 was 36 nM.

Source of the values: ChEMBL document CHEMBL3886392, “Substituted imidazopyrazines” (2015).
